≈ marks a conversion by molar mass, not a printed value. Entries after “also recorded” stand apart in the source; their conditions may differ.
What was measured:
[1] = tested on: patients with solid tumors and hematologic malignancies; test: Phase 1/2 trial in solid tumors and hematologic malignancies: response and serum markers; type: in vivo, human
Protocol: Methods: Phase 1/2 clinical trial in patients with solid tumors and hematologic malignancies evaluates escalating oral doses of the formulation disclosed herein at 10, 20, 30, 40, 50, 75 and 100 mg BID and 80 and 120 mg QD mg (NCT02440685). Phase 1 allows patients with solid tumors or hematologic malignancies; Phase 2 allows only patients with diffuse large B-Cell lymphoma (DLBCL), follicular lymphoma (FL) or mantle cell lymphoma (MCL). Endpoints include safety, tolerability, pharmacokinetics, serum markers of inflammation, and response using RECIST or Lugano Classification System, […]

[2] = tested on: subjects with moderate-to severe atopic dermatitis; test: Phase 1b study in atopic dermatitis: efficacy (EASI, IGA, pruritus NRS); type: in vivo, human; details: for EASI50 / EASI75: once daily, after 4 weeks; for average decrease in EASI / average decrease in Pruritis (Itch) Numeric Rating Scale (NRS): week 4
Protocol: The study conducted was a randomized, double-blind, placebo-controlled, multicenter, sequential dose escalation study in subjects with moderate-to severe atopic dermatitis. The study included a screening period (up to 30 days) and a treatment period for 4 weeks with a 14 day follow up period that concluded with an end-of-study visit. Three sequential cohorts of 20, 40 and 80 mg QD were evaluated. At each dose level a total of 12 subjects were enrolled with 9 subjects receiving Compound 1, and 3 subjects receiving matching placebos.
Upon signing the informed consent, the each subject underwent screening assessments from Day −30 to Day −1 prior to study drug administration. On Day 1 (baseline), eligible subjects were randomized, subjected to the Day 1/baseline assessments and received Compound 1 at 20, 40 or 80 mg or placebo, dependent on cohort and randomization schedule. At this visit, PK/PD samples were collected at predose and up to 8 hours (or up to 12 hours at selected sites). Subjects were monitored in clinic for 2 hours following the first study drug administration. Subjects returned to the clinic on Day 2 for PK and PD samples (24 hours post dose).
Pre-dose PK and PD samples were collected on Days 8 and 29 (last day of treatment). On Day 15, PK/PD samples were also collected at pre-dose and up to 8 hours post-dose and subjects returned on Day 16 for PK and PD samples (24 hours post dose). Subjects came in for additional safety assessments on Days 8, 22 and 29, as well as at the end of the follow up period (Day 43). Disease assessments were conducted on Days 1, Day 15 and Day 29.
Compound 1 was administered orally at doses of 20, 40 and 80 mg qd. Compound 1 was made available in 5-mg, 20-mg, and 50-mg strength tablets.
Assessment of efficacy variables: Preliminary efficacy was assessed by changes in the following assessments between Day 1 (baseline) and Days 15 and 29: IGA, EASI, 5-D Pruritus scale, Pruritus Numeric Rating Scale, % BSA involvement of AD, and skin microbiome analysis
The IGA is an assessment scale used in clinical studies to determine severity of AD and clinical response to treatment based on a 5-point scale ranging from 0 (clear) to 4 (severe) (18). The IGA score was assessed at screening, day 1/baseline (pre-dose), and days 15, 29, 43 or early termination.
The Pruritus NRS is a single-question assessment tool that is used to assess the patient's worst itch as a result of AD in the […]. Subjects complete the patient recorded outcome once daily. Patient compliance on the pruritus NRS is followed at each clinic visit. Subjects were instructed on daily reporting at the Baseline visit and are queried for compliance at every clinic visit. Subjects completed the rating scale daily through the last study visit using the scale provided below.
The Eczema Area and Severity Index (EASI) is a validated measure used in clinical practice and clinical trials to assess the severity and extent of AD. Four AD disease characteristics are assessed for severity by the investigator or designee on a scale of “0” (None) through “3” (severe). In addition, the area of AD involvement is assessed as a percentage by body area of head, trunk, upper and lower extremities and converted to a score of 0 to 6. Subjects were subjected to this assessment at the following visits: screening, day 1/baseline (pre-dose), and days 15, 29, 43 or early termination.
Methods: Patients were randomized 1:3 placebo or Compound 1 at 20, 40 or 80 mg once daily for 4 weeks (n=36). Inclusion criteria were Eczema Area and Severity Index (EASI) ≥16, body surface area (BSA) involvement ≥10% and an Investigator's Global Assessment (IGA) of ≥3 at baseline visit. Study objectives included safety/tolerability, efficacy and pharmacokinetic measurements. No concomitant administration of topical corticosteroids or other immunosuppressants was permitted during or prior to study.

[3] = tested on: ibrutinib-resistant cell lines; test: Pre-clinical proliferation in ibrutinib-resistant cell lines; type: cell-based
Text: A formulation of the disclosure comprising 2-(1-(4-((4-(4-hydroxypiperidin-1-yl)phenyl)amino)-5-oxo-5,6-dihydropyrimido[4,5-d]pyridazin-2-yl)piperidin-4-yl)acetonitrile comprises a potent inhibitor of Spleen Tyrosine Kinase (SYK) and Janus Kinases (JAK).

[4] = HCl solubility profile in organic solvents; type: physicochemical; details: organic solvent or mixture
Text: Analytical studies for 2-(1-(4-((4-(4-hydroxypiperidin-1-yl)phenyl)amino)-5-oxo-5,6-dihydropyrimido[4,5-d]pyridazin-2-yl)piperidin-4-yl)acetonitrile are provided below in Tables 1-3: Table 1 provides the results of an HCl pH dependent solubility profile study, Table 2 provides the results of an HCl solubility profile in organic solvents, and Table 3 provides the results of an HCl stress study.

[5] = Day 1 to Day 29, 20, 40 and 80 mg

N#CCC1CCN(c2nc(Nc3ccc(N4CCC(O)CC4)cc3)c3c(=O)[nH]ncc3n2)CC1 [Compound 1, 2-(1-(4-((4-(4-hydroxypiperidin-1-yl)phenyl)amino)-5-oxo-5,6-dihydropyrimido[4,5-d]pyridazin-2-yl)piperidin-4-yl)acetonitrile]
reduction in target lesions ([1]; 3 months, a FL patient (Lugano, 6 prior lines)): About 50%
response in a peripheral T-Cell lymphoma patient ([1]; after 2 months (Lugano, 2 prior lines)): stable disease and reduction of pruritus
CRP, IL-18, MIP1β, VCAM-1, TNFR2 (serum markers of inflammation) ([1]; all doses): Robust reduction
efficacy in NHL patients (in words) ([1]; in vivo): Encouraging preliminary evidence of efficacy
EASI50 ([2]; 20 mg cohort): 29%
EASI75 ([2]; 20 mg cohort): 0%
average decrease in EASI ([2]; 20 mg cohort): 21%
average decrease in Pruritis (Itch) Numeric Rating Scale (NRS) ([2]; 20 mg cohort): 15%
EASI50 ([2]; 40 mg cohort): 100%
EASI75 ([2]; 40 mg cohort): 63%
average decrease in EASI ([2]; 40 mg cohort): 79%
average decrease in Pruritis (Itch) Numeric Rating Scale (NRS) ([2]; 40 mg cohort): 47%
reduction in itch ([2]; 80 mg cohort, Day 2): ~45%
EASI50 ([2]; 80 mg cohort): 88%
EASI75 ([2]; 80 mg cohort): 50%
average decrease in EASI ([2]; 80 mg cohort): 70%
average decrease in Pruritis (Itch) Numeric Rating Scale (NRS) ([2]; 80 mg cohort): 71%
overall efficacy in moderate to severe AD (in words) ([2]; 4 weeks): clear efficacy; also recorded: robust activity in EASI after 4 weeks
change in pruritus / patient reported itch (in words) ([2]; 20, 40 and 80 mg once daily): early decrease in pruritis; also recorded: significant reduction in patient reported itch was observed as early as 2nd day of treatment; also recorded: early improvements in pruritus
IGA assessments, subjects reaching 0-1 ([2]; 40 and 80 mg cohorts): up to 38%
subjects reached EASI90 [2, 5]: 3 subjects
subjects with 100% clearance [2, 5]: 2 subjects
proliferation [3]: decreases proliferation
solubility ([4]; EtOH): 5 mg/mL (≈ 10.8 mM)
solubility ([4]; IPA): 0.462 mg/mL (≈ 1 mM)
solubility ([4]; MeOH): 4.44 mg/mL (≈ 9.63 mM)
